# Where a SMILES comes first, the peptide text is derived from it. Bridges are numbered along the chain shown (N, C = ends). [ ]: non-standard residue; d: D form. The star is where a group is joined. ξ: configuration not given here. Pro(3ξ,4ξ-(CH2)4) = O=C(O)[C@H]1NCC2CCCCC21; Hexanoyl(4S-Me) = CC[C@H](C)CCC(=O)*; d(aIle) = CC[C@H](C)[C@@H](N)C(=O)O; d(aThr) = C[C@@H](O)[C@@H](N)C(=O)O; Orn = NCCC[C@H](N)C(=O)O; Dhb = C/C=C(\N)C(=O)O
# What was measured:
# Type in all cases: cell-based, human
# Conditions in all cases: 48 hours exposure, SRB
# [1] = test system: K-562; test: SRB colorimetric assay of cell growth and viability, K-562
# [2] = test system: IGROV-1; test: SRB colorimetric assay of cell growth and viability, IGROV-1
# [3] = test system: PANC-1; test: SRB colorimetric assay of cell growth and viability, PANC-1
# [4] = test system: DU-145; test: SRB colorimetric assay of cell growth and viability, DU-145
# [5] = test system: HeLa; test: SRB colorimetric assay of cell growth and viability, HeLa
# [6] = test system: LoVo; test: SRB colorimetric assay of cell growth and viability, LoVo
# [7] = test system: SK-BR-3; test: SRB colorimetric assay of cell growth and viability, SK-BR-3
# Excerpt: The finality of this assay is to interrupt the growth of a “in vitro” tumor cell culture by means a continued exhibition of the cells to the sample to be testing.
# This form of the assay employs 96 well cell culture microplates of 9 mm diameter (Faircloth, 1988; Mosmann, 1983). Most of the cell lines are obtained from American Type Culture Collection (ATCC) derived from different human cancer types.
# Cells are maintained in RPMI 1640 10% FBS, supplemented with 0.1 g/l penicillin and 0.1 g/l streptomycin sulfate and then incubated at 37° C., 5% CO2 and 98% humidity. For the experiments, cells were harvested from subconfluent cultures using trypsin and resuspended in fresh medium before plating.
# Cells are seeded in 96 well microtiter plates, at 5×10^3 cells per well in aliquots of 195 μL medium, and they are allowed to attach to the plate surface by growing in drug free medium for 18 hours. Afterward, samples are added in aliquots of 5 μL in a ranging from 10 to 10^−8 μg/mL, dissolved in DMSO:EtOH:PBS (0.5:0.5:99). After 48 hours exposure, the antitumor effect are measured by the SRB methodology: cells are fixed by adding 50 μL of cold 50% (wt/vol) trichloroacetic acid (TCA) and incubating for 60 minutes at 4° C. Plates are washed with deionized water and dried. One hundred μL of SRB solution (0.4% wt/vol in 1% acetic acid) is added to each microtiter well and incubated for 10 minutes at room temperature. Unbound SRB is removed by washing with 1% acetic acid. Plates are air dried and bound stain is solubilized with Tris buffer. Optical densities are read on a automated spectrophotometric plate reader at a single wavelength of 490 nm.
# The values for mean+/− SD of data from triplicate wells are calculated. Some parameters for cellular responses can be calculated: GI=growth inhibition, TGI=total growth inhibition (cytostatic effect) and LC=cell killing (cytotoxic effect).
# [8] = test system: HeLa-APL; test: SRB colorimetric assay of cell growth and viability, HeLa-APL
# [9] = test system: IGROV-ET; test: SRB colorimetric assay of cell growth and viability, IGROV-ET
# [10] = test system: SK-MEL-28; test: SRB colorimetric assay of cell growth and viability, SK-MEL-28
# [11] = test system: HT-29; test: SRB colorimetric assay of cell growth and viability, HT-29
# [12] = test system: A-549; test: SRB colorimetric assay of cell growth and viability, A-549
# [13] = test system: LoVo-Dox; test: SRB colorimetric assay of cell growth and viability, LoVo-Dox
# Procedure, shortened: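 First, 5×10^3 cells per well attach for 18 hours in RPMI 1640 with 10% FBS at 37° C and 5% CO2. Next, samples spanning 10 to 10^−8 μg/mL are added for 48 hours. Finally, cells are fixed with TCA, stained with SRB for 10 minutes and read at 490 nm.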
structure (smiles),measurement,setting,value
"C/C=C1\NC(=O)[C@@H]2C3CCCCC3CN2C(=O)[C@@H](C(C)C)NC(=O)[C@@H]([C@@H](C)CC)NC(=O)[C@H](NC(=O)[C@H](NC(=O)[C@H](CCCN)NC(=O)[C@H]2CCCN2C(=O)[C@H](NC(=O)[C@@H](NC(=O)[C@@H](NC(=O)[C@H](NC(=O)CC[C@@H](C)CC)C(C)C)[C@@H](C)O)C(C)C)C(C)C)[C@@H](C)CC)[C@@H](C)OC(=O)[C@H](C(C)C)NC1=O (stereo partly drawn) [Compound 79, [Oic^3, (4S)-MeHex^14]-KF] ({Hexanoyl(4S-Me)}-[dV]TV[dV][dP][Orn][d(aIle)][d(aThr)][d(aIle)][dV][Pro(3ξ,4ξ-(CH2)4)][Dhb]V; ester 8-C)",GI50,[1],1.71 µM
same,TGI K-562,[1],4.02E−06 Molar
same,CC50,[1]; read-out: LC50 K-562,≥ 6.75 µM
same,GI50,[2],1.91 µM
same,LC50 (concentration causing 50% net cell killing),[2],5.55 µM
same,TGI IGROV,[2],3.25E−06 Molar
same,GI50,[3],≥ 6.75 µM
same,TGI PANC-1,[3],6.75E−06 Molar
same,CC50,[3]; read-out: LC50 PANC-1,≥ 6.75 µM
same,GI50,[4],6.01 µM
same,LC50 (concentration causing 50% net cell kill),[4],≥ 6.75 µM
same,TGI DU-145,[4],6.75E−06 Molar
same,GI50,[5],2.69 µM
same,TGI HELA,[5],6.75E−06 Molar
same,CC50,[5]; read-out: LC50 HELA,≥ 6.75 µM
same,GI50,[6],0.591 µM
same,TGI LOVO,[6],1.40E−06 Molar
same,CC50,[6]; read-out: LC50 LOVO,3.02 µM
same,GI50,[7],0.796 µM
same,LC50,[7],3.43 µM
same,TGI SK-BR-3,[7],1.65E−06 Molar
same,GI50,[8],4.8 µM
same,TGI HELA-APL,[8],6.75E−06 Molar
same,CC50,[8]; read-out: LC50 HELA-APL,≥ 6.75 µM
same,GI50,[9],1.98 µM
same,TGI IGROV-ET,[9],4.28E−06 Molar
same,CC50,[9]; read-out: LC50 IGROV-ET,≥ 6.75 µM
same,GI50,[10],2.31 µM
same,TGI MEL-28,[10],6.75E−06 Molar
same,CC50,[10]; read-out: LC50 MEL-28,≥ 6.75 µM
same,TGI HT-29,[11],2.43E−06 Molar
same,GI50,[11]; read-out: GI50 HT-29,1.44 µM
same,CC50,[11]; read-out: LC50 HT-29,4.09 µM
same,TGI A-549,[12],6.75E−06 Molar
same,GI50,[12]; read-out: GI50 A-549,4.42 µM
same,CC50,[12]; read-out: LC50 A-549,≥ 6.75 µM
same,GI50,[13],0.387 µM
same,TGI LOVO-DOX,[13],1.15E−06 Molar
same,CC50,[13]; read-out: LC50 LOVO-DOX,2.56 µM

# — patent US20070117743A1, “New antitumoral compounds” (priority 2003, published 2007)
